# Reference: ChEMBL document CHEMBL1158153, “Novel H3 receptor antagonists with improved pharmacokinetic profiles” (Bioorg Med Chem Lett, 2008)
# Assays:
# Histamine H3 receptor [1] = target: Histamine H3 receptor (Rattus norvegicus, UniProt Q9QYN8); assay: Displacement of N-[3H]methylhistamine from histamine H3 receptor in rat cortex membrane; format: cell membranes
# Histamine H3 receptor [2] = target: T1, Histamine H3 receptor (Homo sapiens, UniProt Q9Y5N1); assay: Antagonist activity at human histamine H3 receptor expressed in CHOK1 cells by [3H]R(-)-alpha-methylhistamine displacement assay; format: cell-based, CHO-K1
# Histamine H3 receptor [3] = target: T1, Histamine H3 receptor; assay: Inverse agonist activity at human H3 receptor expressed in CHOK1 cells by GTPgammaS binding assay; format: functional, cell-based, CHO-K1
# [4] = Tmax in rat at 10 mg/kg, po; format: ADME, organism-based; design: dose 10 mg/kg, route oral; conditions: in vivo
# [5] = Half life in rat at 10 mg/kg, po; format: ADME, organism-based; design: dose 10 mg/kg, route oral; conditions: in vivo
# Rattus norvegicus = organism: Rattus norvegicus; assay: Inhibition of R(-)-alpha-methylhistamine-induced drinking response in rat dipsogenia model after 0.5 hrs; format: functional, organism-based
# [6] = Bioavailability in rat at 10 mg/kg, po; format: ADME, organism-based; conditions: in vivo
# Chain of Histamine H3 receptor (Rattus norvegicus, UniProt Q9QYN8) (Q9QYN8 whole entry): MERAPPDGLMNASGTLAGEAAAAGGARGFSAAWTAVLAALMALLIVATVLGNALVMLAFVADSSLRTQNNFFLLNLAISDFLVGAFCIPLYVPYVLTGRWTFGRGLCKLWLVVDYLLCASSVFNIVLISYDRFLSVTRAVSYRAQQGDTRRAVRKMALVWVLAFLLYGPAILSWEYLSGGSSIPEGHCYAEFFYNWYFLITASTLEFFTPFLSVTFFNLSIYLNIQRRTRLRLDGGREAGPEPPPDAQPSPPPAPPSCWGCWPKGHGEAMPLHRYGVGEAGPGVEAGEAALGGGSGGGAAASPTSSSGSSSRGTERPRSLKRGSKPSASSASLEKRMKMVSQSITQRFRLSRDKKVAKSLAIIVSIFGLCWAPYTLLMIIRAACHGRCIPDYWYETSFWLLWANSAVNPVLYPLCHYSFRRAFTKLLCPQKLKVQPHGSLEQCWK
# T1 sequence (Q9Y5N1 whole entry): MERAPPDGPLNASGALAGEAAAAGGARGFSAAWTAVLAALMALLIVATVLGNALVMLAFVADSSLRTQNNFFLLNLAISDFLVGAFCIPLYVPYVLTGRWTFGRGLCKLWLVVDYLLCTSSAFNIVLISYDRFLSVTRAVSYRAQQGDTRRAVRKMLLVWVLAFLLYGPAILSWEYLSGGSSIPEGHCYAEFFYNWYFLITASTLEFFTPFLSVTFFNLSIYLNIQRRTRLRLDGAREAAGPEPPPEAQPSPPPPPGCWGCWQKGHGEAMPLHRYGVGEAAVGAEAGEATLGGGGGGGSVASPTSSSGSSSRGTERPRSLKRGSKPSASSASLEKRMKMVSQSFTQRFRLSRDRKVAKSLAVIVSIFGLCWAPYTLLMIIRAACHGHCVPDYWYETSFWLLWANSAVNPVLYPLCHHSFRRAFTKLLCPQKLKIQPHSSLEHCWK
Structure (SMILES),Ki (Histamine H3 receptor [1]),further results
CC(C)C(=O)N1C[C@@H]2CC=C(c3ccc(CCN4CCCC4)cc3)[C@@H]2C1,5 nM,–
O=S(=O)(c1ccccc1)N1C[C@@H]2CC=C(c3ccc(CCN4CCCC4)cc3)[C@@H]2C1,17 nM,–
C1=C(c2ccc(CCN3CCCC3)cc2)[C@@H]2CN(CC3CC3)C[C@@H]2C1,–,Ki (Histamine H3 receptor [2]): 0.9 nM; Ki (Histamine H3 receptor [3]): 1 nM; Tmax [4]: 6 h; half-life [5]: 6 h
O=S(=O)(Cc1ccccc1)N1C[C@@H]2CC=C(c3ccc(CCN4CCCC4)cc3)[C@@H]2C1,12 nM,–
C[C@@H]1CCCN1CCc1ccc(C2=CC[C@H]3CN(C(=O)c4cccnc4)C[C@@H]23)cc1,1 nM,–
CN(C)C(=O)N1C[C@@H]2CC=C(c3ccc(CCN4CCCC4)cc3)[C@@H]2C1,13 nM,–
O=C(c1cccnc1)N1C[C@@H]2CC=C(c3ccc(CCN4CCCC4)cc3)[C@@H]2C1,6 nM,–
O=C(Cc1ccccc1)N1C[C@@H]2CC=C(c3ccc(CCN4CCCC4)cc3)[C@@H]2C1,7 nM,–
C[C@@H]1CCCN1CCc1ccc(C2=CC[C@H]3CN(C(=O)C4CCOCC4)C[C@@H]23)cc1,0.7 nM,Ki (Histamine H3 receptor [2]): 2 nM; Ki (Histamine H3 receptor [3]): 4 nM; Activity (Rattus norvegicus): Dose-dependent effect; Tmax [4]: 0.3 h; half-life [5]: 2.5 h; bioavailability [6]: 66%
CS(=O)(=O)N1C[C@@H]2CC=C(c3ccc(CCN4CCCC4)cc3)[C@@H]2C1,27 nM,–
O=C(c1ccccc1)N1C[C@@H]2CC=C(c3ccc(CCN4CCCC4)cc3)[C@@H]2C1,21 nM,–
C[C@@H]1CCCN1CCc1ccc(C2=CC[C@H]3CN(C(=O)c4ccccc4)C[C@@H]23)cc1,3 nM,–
O=C(N1CCOCC1)N1C[C@@H]2CC=C(c3ccc(CCN4CCCC4)cc3)[C@@H]2C1,12 nM,–
O=C(CO)N1C[C@@H]2CC=C(c3ccc(CCN4CCCC4)cc3)[C@@H]2C1,6 nM,Tmax [4]: 0.6 h; half-life [5]: 1.8 h; bioavailability [6]: 39%
O=C(NC1CCCC1)N1C[C@@H]2CC=C(c3ccc(CCN4CCCC4)cc3)[C@@H]2C1,16 nM,–
CC(C)C(=O)N1C[C@@H]2CC=C(c3ccc(CCN4CCC[C@H]4C)cc3)[C@@H]2C1,0.4 nM,–
O=C(C1CCCC1)N1C[C@@H]2CC=C(c3ccc(CCN4CCCC4)cc3)[C@@H]2C1,3 nM,–
CC(C)S(=O)(=O)N1C[C@@H]2CC=C(c3ccc(CCN4CCCC4)cc3)[C@@H]2C1,12 nM,Tmax [4]: 0.2 h; half-life [5]: 5 h; bioavailability [6]: 3%
C[C@@H]1CCCN1CCc1ccc(C2=CC[C@H]3CN(C(=O)Cc4ccccc4)C[C@@H]23)cc1,0.3 nM,–
C[C@@H]1CCCN1CCc1ccc(C2=CC[C@H]3CN(C(=O)C4CCCC4)C[C@@H]23)cc1,0.4 nM,–
O=C(C1CCOC1)N1C[C@@H]2CC=C(c3ccc(CCN4CCCC4)cc3)[C@@H]2C1 (stereo not given in full),4 nM,–
CC(C)NC(=O)N1C[C@@H]2CC=C(c3ccc(CCN4CCCC4)cc3)[C@@H]2C1,20 nM,Tmax [4]: 0.3 h; half-life [5]: 7.3 h; bioavailability [6]: 22%
